Experimental data reported in PubChem BioAssay AID266 (DTP/NCI, 2004).
Values joined by “and” are separate entries in the source; they are usually repeats but may differ in a detail not shown here. Equal entries are not always repeated. Results filed as inconclusive are left out.

System: Nude mice, LX-1 lung xenograft intrarenal, tumor weight T/C
Test: NCI In Vivo Anticancer Drug Screen. Data for tumor model Human Lung LX-1 Xenograft (intrarenal inoculation) in NU/NU BALB/C (nude) mice
Details: endpoint: mean tumor weight change, higher = larger tumour
Method: The antitumor activity of compounds was measured in mice bearing transplantable tumors. Survival or tumor size were measured and the results are expressed as the measurement made in the treated group (T) divided by the measurement made in the vehicle treated control group (C). The tumor model used in this assay is Human Lung LX-1 Xenograft (intrarenal inoculation) in NU/NU BALB/C (nude) mice

[1] = dose: 600.0 mg/kg/injection, schedule: Q04DX003 (sc), vehicle: saline with Tween-80
[2] = dose: 1200.0 mg/kg/injection, schedule: Q04DX003 (sc), vehicle: saline with Tween-80
[3] = dose: 2400.0 mg/kg/injection, schedule: Q04DX003 (sc), vehicle: saline with Tween-80
[4] = dose: 40.0 mg/kg/injection, schedule: Q04DX003 (sc), vehicle: water

CN=NN(C)C(=O)NC
T/C (dose: 6.25 mg/kg/injection, schedule: Q04DX003 (ip), vehicle: saline): 71 % of control and 82 % of control
T/C (dose: 12.5 mg/kg/injection, schedule: Q04DX003 (ip), vehicle: saline): 28 % of control and 45 % of control
T/C (dose: 25.0 mg/kg/injection, schedule: Q04DX003 (ip), vehicle: saline): 6 % of control
T/C (dose: 50.0 mg/kg/injection, schedule: Q04DX003 (ip), vehicle: saline): -34 % of control and -18 % of control
T/C (dose: 108.0 mg/kg/injection, schedule: Q04DX003 (ip), vehicle: saline): 5 % of control
T/C (dose: 180.0 mg/kg/injection, schedule: Q04DX003 (ip), vehicle: saline): 4 % of control

O=C(Nc1cc(Cl)ccc1C(=O)O)c1cccc(C[n+]2ccccc2)c1
T/C (dose: 150.0 mg/kg/injection, schedule: Q04DX003 (ip), vehicle: saline with Tween-80): 67 % of control
T/C (dose: 300.0 mg/kg/injection, schedule: Q04DX003 (ip), vehicle: saline with Tween-80): 100 % of control

Oc1cc2ccccc2c(-c2c(O)c(O)cc3ccccc23)c1O
T/C [1]: 122 % of control
T/C [2]: 95 % of control
T/C [3]: 84 % of control

CN1c2c(nc(N)[nH]c2=O)NCC1CCNc1ccc(C(=O)NC(CCC(=O)O)C(=O)O)cc1 (stereo unspecified)
T/C (dose: 100.0 mg/kg/injection, schedule: Q01DX010 (sc), vehicle: saline): 56 % of control
T/C (dose: 200.0 mg/kg/injection, schedule: Q01DX010 (sc), vehicle: saline): 28 % of control
T/C (dose: 400.0 mg/kg/injection, schedule: Q01DX010 (sc), vehicle: saline): 49 % of control
T/C (dose: 800.0 mg/kg/injection, schedule: Q01DX010 (sc), vehicle: saline): 34 % of control

[N-]=[N+]=CC(=O)CCC(N)C(=O)O (stereo unspecified)
T/C (dose: 0.05 mg/kg/injection, schedule: Q01DX010 (sc), vehicle: saline): 119 % of control
T/C (dose: 0.05 mg/kg/injection, schedule: Q02DX005 (sc), vehicle: saline): 226 % of control
T/C (dose: 0.1 mg/kg/injection, schedule: Q01DX010 (sc), vehicle: saline): 64 % of control
T/C (dose: 0.1 mg/kg/injection, schedule: Q02DX005 (sc), vehicle: saline): 187 % of control
T/C (dose: 0.2 mg/kg/injection, schedule: Q02DX005 (sc), vehicle: saline): 110 % of control
T/C (dose: 0.4 mg/kg/injection, schedule: Q01DX010 (sc), vehicle: saline): 34 % of control
T/C (dose: 3.2 mg/kg/injection, schedule: Q02DX005 (sc), vehicle: saline): 9 % of control

CC[C@](C)(O)C(=O)O[C@H]1C(=O)O[C@@H]2C[C@H]3C(C)=CC(=O)[C@@H](O)[C@]3(C)[C@H]3[C@@]4(O)OC[C@]32[C@@H]1[C@@H](C)[C@H]4O
T/C (dose: 0.5 mg/kg/injection, schedule: Q01DX010 (sc), vehicle: Klucel (hydroxypropylcellulose) (HPC)): 38 % of control
T/C (dose: 1.0 mg/kg/injection, schedule: Q01DX010 (sc), vehicle: Klucel (hydroxypropylcellulose) (HPC)): 17 % of control

CC1=CC2c3cccc4[nH]cc(c34)CC2N(C)C1 (stereo unspecified)
T/C (dose: 6.25 mg/kg/injection, schedule: Q04DX003 (ip), vehicle: suspension in saline): 93 % of control
T/C (dose: 12.5 mg/kg/injection, schedule: Q04DX003 (ip), vehicle: suspension in saline): 111 % of control
T/C (dose: 25.0 mg/kg/injection, schedule: Q04DX003 (ip), vehicle: suspension in saline): 115 % of control
T/C (dose: 50.0 mg/kg/injection, schedule: Q04DX003 (ip), vehicle: suspension in saline): 115 % of control

Nc1ccc(Cn2ccc3c4c(N)nc(N)nc4ccc32)cc1
T/C (dose: 9.38 mg/kg/injection, schedule: Q04DX003 (sc), vehicle: saline with Tween-80): 68 % of control
T/C (dose: 18.75 mg/kg/injection, schedule: Q04DX003 (sc), vehicle: saline with Tween-80): 51 % of control
T/C (dose: 37.5 mg/kg/injection, schedule: Q04DX003 (sc), vehicle: saline with Tween-80): 52 % of control

C[n+]1c(-c2cccc3ccccc23)c2cc(N)ccc2c2ccccc21
T/C (dose: 1.5 mg/kg/injection, schedule: Q04DX003 (sc), vehicle: saline): 164 % of control
T/C (dose: 6.0 mg/kg/injection, schedule: Q04DX003 (sc), vehicle: saline): 113 % of control
T/C (dose: 24.0 mg/kg/injection, schedule: Q04DX003 (sc), vehicle: saline): 112 % of control
T/C (dose: 48.0 mg/kg/injection, schedule: Q04DX003 (sc), vehicle: saline): 78 % of control

COc1cccc2c1C(=O)c1c(O)c3c(c(O)c1C2=O)C[C@@](O)(/C(C)=N\O)C[C@@H]3OC1CC(N)C(O)C(C)O1 (stereo partly specified)
T/C (dose: 25.0 mg/kg/injection, schedule: Q04DX003 (sc), vehicle: saline): 87 % of control
T/C (dose: 50.0 mg/kg/injection, schedule: Q04DX003 (sc), vehicle: saline): 65 % of control and 76 % of control
T/C (dose: 100.0 mg/kg/injection, schedule: Q04DX003 (sc), vehicle: saline): 17 % of control and 18 % of control

O=Cc1ccc(C=O)c(Cl)c1
T/C (dose: 300.0 mg/kg/injection, schedule: Q04DX003 (sc), vehicle: Klucel (hydroxypropylcellulose) (HPC)): 81 % of control
T/C (dose: 600.0 mg/kg/injection, schedule: Q04DX003 (sc), vehicle: Klucel (hydroxypropylcellulose) (HPC)): 88 % of control
T/C (dose: 1200.0 mg/kg/injection, schedule: Q04DX003 (sc), vehicle: Klucel (hydroxypropylcellulose) (HPC)): 79 % of control
T/C (dose: 2400.0 mg/kg/injection, schedule: Q04DX003 (sc), vehicle: Klucel (hydroxypropylcellulose) (HPC)): 152 % of control

CC(=O)Oc1[nH]c(=O)c2cccc3c2c1CCC3
T/C (dose: 300.0 mg/kg/injection, schedule: Q04DX003 (sc), vehicle: saline with Tween-80): 62 % of control
T/C [1]: 68 % of control
T/C [2]: 90 % of control
T/C [3]: 83 % of control

Nc1cc2[nH]cnc2c(=O)[nH]1
T/C (dose: 25.0 mg/kg/injection, schedule: Q01DX010 (sc), vehicle: saline): 75 % of control
T/C (dose: 50.0 mg/kg/injection, schedule: Q01DX010 (sc), vehicle: saline): 89 % of control

CCOC(=O)N(C)N=NC
T/C (dose: 7.5 mg/kg/injection, schedule: Q04DX003 (ip), vehicle: saline): 57 % of control
T/C (dose: 15.0 mg/kg/injection, schedule: Q04DX003 (ip), vehicle: saline): 51 % of control
T/C (dose: 60.0 mg/kg/injection, schedule: Q04DX003 (ip), vehicle: saline): 14 % of control and 24 % of control

CCCCCCCCCCC(OC(C)=O)C1CCC(C2CCC(C(O)CCCCCCCCCCCCC3C=C(C)OC3=O)O2)O1 (stereo unspecified)
T/C (dose: 5.0 mg/kg/injection, schedule: Q04DX003 (sc), vehicle: water): 93 % of control
T/C (dose: 10.0 mg/kg/injection, schedule: Q04DX003 (sc), vehicle: water): 114 % of control
T/C (dose: 20.0 mg/kg/injection, schedule: Q04DX003 (sc), vehicle: water): 108 % of control
T/C [4]: 110 % of control

CCCCCCCCNc1cc2c3c(c1)CCCN3CCC2
T/C (dose: 6.0 mg/kg/injection, schedule: Q04DX003 (sc), vehicle: Klucel (hydroxypropylcellulose) (HPC)): 155 % of control
T/C (dose: 12.0 mg/kg/injection, schedule: Q04DX003 (sc), vehicle: Klucel (hydroxypropylcellulose) (HPC)): 118 % of control
T/C (dose: 24.0 mg/kg/injection, schedule: Q04DX003 (sc), vehicle: Klucel (hydroxypropylcellulose) (HPC)): 106 % of control

Nc1ccc(S(=O)(=O)Nc2cnc3c(Cl)cccc3n2)cc1
T/C (dose: 150.0 mg/kg/injection, schedule: Q04DX003 (ip), vehicle: DMSO): 82 % of control
T/C (dose: 300.0 mg/kg/injection, schedule: Q04DX003 (ip), vehicle: DMSO): 89 % of control
T/C (dose: 600.0 mg/kg/injection, schedule: Q04DX003 (ip), vehicle: DMSO): 45 % of control

CCC12C[N+]3([O-])CCc4c([nH]c5ccccc45)C(C(=O)OC)(c4cc5c(cc4OC)N(C)C4C(O)(C(=O)OC)C(OC(C)=O)C6(CC)C=CCN7CCC54C76)CC(C3)C1O2 (stereo unspecified)
T/C [4]: 64 % of control
T/C (dose: 80.0 mg/kg/injection, schedule: Q04DX003 (sc), vehicle: water): 86 % of control
T/C (dose: 160.0 mg/kg/injection, schedule: Q04DX003 (sc), vehicle: water): 93 % of control
T/C (dose: 320.0 mg/kg/injection, schedule: Q04DX003 (sc), vehicle: water): 93 % of control

CC[C@]1(O)C[C@H]2CN(CCc3c([nH]c4ccccc34)[C@@](C(=O)OC)(c3cc4c(cc3OC)N(C=O)[C@H]3[C@@](O)(C(=O)OC)[C@H](OC(C)=O)[C@]5(CC)C=CCN6CC[C@]43[C@@H]65)C2)C1
T/C (dose: 0.13 mg/kg/injection, schedule: Q01DX010 (sc), vehicle: saline): 69 % of control
T/C (dose: 0.25 mg/kg/injection, schedule: Q01DX010 (sc), vehicle: saline): 20 % of control
T/C (dose: 0.5 mg/kg/injection, schedule: Q01DX010 (sc), vehicle: saline): 1 % of control

CN(C)c1ccc2c(NCCCCCCNc3ccnc4cc(N(C)C)ccc34)ccnc2c1
T/C (dose: 37.5 mg/kg/injection, schedule: Q04DX003 (sc), vehicle: distilled water + Tween-80 + alcohol): 122 % of control
T/C (dose: 75.0 mg/kg/injection, schedule: Q04DX003 (sc), vehicle: distilled water + Tween-80 + alcohol): 80 % of control
T/C (dose: 150.0 mg/kg/injection, schedule: Q04DX003 (sc), vehicle: distilled water + Tween-80 + alcohol): 75 % of control
